In patent US20150232420A1, “TRANSGLUTAMINASE TG2 INHIBITORS, PHARMACEUTICAL COMPOSITIONS, AND METHODS OF USE THEREOF” (priority 2012, published 2015):
pIC50: −log10 of the molar value.

What follows are compounds tested against T1, human TG2 (Homo sapiens, UniProt P21980) (assay: fluorescent screening assay for human TG2). Details: Table 7; 20 nM TG2, 37° C.; read-out: IC50.
T1 sequence (P21980 1-687): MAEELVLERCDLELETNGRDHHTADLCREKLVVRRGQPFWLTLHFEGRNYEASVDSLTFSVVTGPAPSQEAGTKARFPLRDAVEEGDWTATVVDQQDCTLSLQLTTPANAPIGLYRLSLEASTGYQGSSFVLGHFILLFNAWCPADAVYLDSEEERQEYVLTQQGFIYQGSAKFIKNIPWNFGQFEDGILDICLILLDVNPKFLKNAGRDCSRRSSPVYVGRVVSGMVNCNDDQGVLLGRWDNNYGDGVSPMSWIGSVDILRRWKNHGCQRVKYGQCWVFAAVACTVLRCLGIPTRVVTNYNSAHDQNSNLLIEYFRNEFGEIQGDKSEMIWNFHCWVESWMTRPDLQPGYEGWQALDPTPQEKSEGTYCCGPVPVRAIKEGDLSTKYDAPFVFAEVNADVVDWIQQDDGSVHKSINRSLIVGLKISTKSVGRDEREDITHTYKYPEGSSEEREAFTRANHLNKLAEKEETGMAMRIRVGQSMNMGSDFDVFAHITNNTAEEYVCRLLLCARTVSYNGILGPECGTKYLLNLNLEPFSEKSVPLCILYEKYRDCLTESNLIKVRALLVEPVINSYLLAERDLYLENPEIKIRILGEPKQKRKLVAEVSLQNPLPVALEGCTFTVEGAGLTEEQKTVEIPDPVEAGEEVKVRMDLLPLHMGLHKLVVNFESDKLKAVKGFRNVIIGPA
Format: biochemical
Description: The fluorescent screening assay for human TG2 was performed as described herein: Assay conditions were 20 nM TG2, 8 μM N,N-dimethylated Casein (NMC) and 16 μM K×D (used for all transglutaminase assays) in 25 mM Hepes, pH 7.4, 250 mM NaCl, 2 mM MgCl2, 0.5 mM CaCl2, 0.2 mM DTT, 0.05% Pluronic F-127 at 37° C. A time point was taken with a microplate reader (Safire or Ultra, Tecan; ex: 350 nm, em: 535 nm) every 3 minutes for up to 2 hours and the initial linear reaction progress was used to determine the reaction velocity as a measure for enzyme activity. Assay conditions were identical for human TG6 and similar for human TG1 and mouse TG2 apart from enzyme concentration (mTG2 at 5 nM; TG1 at 10 nM) and CaCl2 concentration (0.2 mM for mTG2; 0.05 mM for TG1). Factor XIIIa was activated using 0.1 μg/μl thrombin (Sigma) in 35 mM Tris pH 8.0 for 20 min at 30° C. and the transamidation reaction was performed with 20 nM Factor XIIIa in 50 mM Tris pH 8.0, 1.25 mM CaCl2, 0.05% Pluronic, 0.2 mM DTT. TG3 was activated with 0.02 μg/μl thrombin under the same conditions as Factor XIIIa and assay conditions were 10 nM TG3 in 50 mM Hepes, pH 8, 20 mM CaCl2, 0.2 mM DTT, 0.05% Pluronic F-127.

Compound	pIC50
C=CC(=O)NCCCC[C@H](NC(=O)OCc1ccccc1)C(=O)N1CCN(c2cccc(C)n2)CC1 [benzyl N-[(2S)-1-[4-(6-methylpyridin-2-yl)piperazin-1-yl]-1-oxo-6-(prop-2-enamido)hexan-2-yl]carbamate]	> 7.00
C=CC(=O)NCCCC[C@H](NC(=O)OCc1ccccc1)C(=O)N1CCN(C(=O)C23CC4CC(CC(C4)C2)C3)CC1 [benzyl N-[(2S)-1-[4-(adamantane-1-carbonyl)piperazin-1-yl]-1-oxo-6-(prop-2-enamido)hexan-2-yl]carbamate]	> 7.00
C=CC(=O)NCCCC[C@H](NC(=O)OCc1ccccc1)C(=O)N1CCN(C(=O)N2CCOCC2)CC1 [benzyl N-[(2S)-1-[4-(morpholine-4-carbonyl)piperazin-1-yl]-1-oxo-6-(prop-2-enamido)hexan-2-yl]carbamate]	6.00 to 7.00
C=CC(=O)NCCCC[C@H](NC(=O)OCc1ccccc1)C(=O)N1CCN(c2ccc3ccccc3c2)CC1 [benzyl N-[(2S)-1-[4-(naphthalen-2-yl)piperazin-1-yl]-1-oxo-6-(prop-2-enamido)hexan-2-yl]carbamate]	6.00 to 7.00
C=CC(=O)NCCCC[C@H](NC(=O)OCc1ccccc1)C(=O)N1CCN(C(=O)C2CCOCC2)CC1 [benzyl N-[(2S)-1-[4-(oxane-4-carbonyl)piperazin-1-yl]-1-oxo-6-(prop-2-enamido)hexan-2-yl]carbamate]	6.00 to 7.00
C=CC(=O)NCCCC[C@@H](CO)NC(=O)OCc1ccccc1 [benzyl N-[(2S)-1-hydroxy-6-(prop-2-enamido)hexan-2-yl]carbamate]	4.00 to 6.00
C=CC(=O)NCCCC[C@H](NC(=O)OCc1ccccc1)C(=O)N1CCC(c2ccccc2)CC1 [benzyl N-[(2S)-1-oxo-1-(4-phenylpiperidin-1-yl)-6-(prop-2-enamido)hexan-2-yl]carbamate]	> 7.00
C=CC(=O)NCCCC[C@H](NC(=O)OCc1ccccc1)C(=O)N1CCCCC1 [benzyl N-[(2S)-1-oxo-1-(piperidin-1-yl)-6-(prop-2-enamido)hexan-2-yl]carbamate]	4.00 to 6.00
C=CC(=O)NCCCC[C@H](NC(=O)OCc1ccccc1)C(=O)N1CCCC1 [benzyl N-[(2S)-1-oxo-6-(prop-2-enamido)-1-(pyrrolidin-1-yl)hexan-2-yl]carbamate]	6.00 to 7.00
C=CC(=O)NCCCC[C@H](NC(=O)OCc1ccccc1)C(=O)N1CCN(c2nccs2)CC1 [benzyl N-[(2S)-1-oxo-6-(prop-2-enamido)-1-[4-(1,3-thiazol-2-yl)piperazin-1-yl]hexan-2-yl]carbamate]	6.00 to 7.00
C=CC(=O)NCCCC[C@H](NC(=O)OCc1ccccc1)C(=O)N1CCN(c2ccccn2)CC1 [benzyl N-[(2S)-1-oxo-6-(prop-2-enamido)-1-[4-(pyridin-2-yl)piperazin-1-yl]hexan-2-yl]carbamate]	6.00 to 7.00
C=CC(=O)NCCCC[C@H](NC(=O)OCc1ccccc1)C(=O)N1CCN(c2ncccc2C(F)(F)F)CC1 [benzyl N-[(2S)-1-oxo-6-(prop-2-enamido)-1-{4-[3-(trifluoromethyl)pyridin-2-yl]piperazin-1-yl}hexan-2-yl]carbamate]	6.00 to 7.00
C=CC(=O)NCCCC[C@H](NC(=O)OCc1ccccc1)C(=O)N1CCN(c2ccc(C(F)(F)F)cn2)CC1 [benzyl N-[(2S)-1-oxo-6-(prop-2-enamido)-1-{4-[5-(trifluoromethyl)pyridin-2-yl]piperazin-1-yl}hexan-2-yl]carbamate]	6.00 to 7.00
C=CC(=O)NCCCC[C@H](NC(=O)OCc1ccccc1)C(=O)N1CCN(C(=O)OC(C)(C)C)CC1 [tert-butyl 4-[(2S)-2-{[(benzyloxy)carbonyl]amino}-6-(prop-2-enamido)hexanoyl]piperazine-1-carboxylate]	6.00 to 7.00
C=CC(=O)NCCCC[C@H](NC(=O)OC(C)(C)C)C(=O)N1CCN(c2cccc(C)n2)CC1 [tert-butyl N-[(2S)-1-[4-(6-methylpyridin-2-yl)piperazin-1-yl]-1-oxo-6-(prop-2-enamido)hexan-2-yl]carbamate]	6.00 to 7.00
